Like-named read-outs stand apart in the source and are kept apart here.
Experiments:
HIV-1 (RF) in MT-2 cells = assay: microbe, parasite or virus in culture; assay type: cell-based
Summary of the method: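 HIV-1 laboratory strains (RF, MN, IIIB) grown in H9 cells in RPMI 1640 with 5% FCS; infections in MT-2 cells. Viral RNA quantified by hybridization with biotinylated gag/pol capture probes on streptavidin plates and alkaline phosphatase-conjugated reporter probes; BH10 gag-pol in vitro transcripts serve as RNA standards.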

[1] = biological target: single-chain tethered dimer of HIV protease (Human immunodeficiency virus 1, UniProt P04585); assay: biochemical; assay type: biochemical; parameters: fused on or other part: A second copy of the same protease unit is joined to the first by a short peptide tether, giving one polypeptide
[2] = Table 2d, class symbols, read-out: HPLC K1
[3] = Human immunodeficiency virus 1, MT2, 48 h, Table 2d, class symbols, read-out: IC90
[4] = read-out: HPLC K1, Table 2d, class symbols
[5] = Human immunodeficiency virus 1, MT2, 48 h, Table 2d, HIV RNA assay, read-out: IC90
[6] = read-out: HPLC K1, Table 2d, HIV protease inhibition, HPLC method
[7] = Table 2d, HIV protease inhibition, HPLC method, read-out: HPLC K1

O=C1N(Cc2cnccc2O)C(Cc2ccccc2)C(O)C(O)C(Cc2ccccc2)N1Cc1cnccc1O (stereo not drawn) [Example 14C]
IC90 (HIV-1 (RF) in MT-2 cells; Table 2d, class symbols): + (+=>100 μg/mL) | Ki [1, 2]: 10 to 1000 nM

NC(=NO)c1cccc(CN2C(=O)N(Cc3cccc(C(N)=NO)c3)C(Cc3ccc(F)cc3)C(O)C(O)C2Cc2ccc(F)cc2)c1 (stereo not drawn) [20X]
IC90 (HIV-1 (RF) in MT-2 cells; Human immunodeficiency virus 1, MT2, Table 2i, read-out: IC90): < 10 µg/mL | Ki ([1]; read-out: HPLC Ki, Table 2i): < 10 nM

O=C1N(CC2CC2)C(C(F)Cc2ccccc2)C[C@@H](Cc2ccccc2)N1CC1CC1 (stereo partly drawn) [Example 8N]
IC90 (HIV-1 (RF) in MT-2 cells; Human immunodeficiency virus 1, MT2, Table 1e, read-out: IC90): < 10 µg/mL | Ki ([1]; read-out: Ki (HPLC), Table 1e, cells marked (HPLC)): > 1000 nM

Nc1cccc(CN2C(=O)N(Cc3ccc(CO)cc3)C(Cc3ccccc3)C(O)C(O)C2Cc2ccccc2)c1 (stereo not drawn) [15A]
IC90 (HIV-1 (RF) in MT-2 cells; [3]): < 10 µg/mL | Ki [1, 4]: < 10 nM

O=C1N(Cc2ccc(C(O)CO)cc2)C(Cc2ccccc2)C(O)C(O)C(Cc2ccccc2)N1Cc1ccc(C(O)CO)cc1 (stereo not drawn) [11L]
IC90 (HIV-1 (RF) in MT-2 cells; [3]): < 10 µg/mL | Ki [1, 4]: < 10 nM

O=C1N(Cc2cccc(CNO)c2)C(Cc2ccccc2)C(O)C(O)C(Cc2ccccc2)N1Cc1cccc(CNO)c1 (stereo not drawn) [Example 9B]
IC90 (HIV-1 (RF) in MT-2 cells; [3]): < 10 µg/mL | Ki [1, 4]: 10 to 1000 nM

O=C(NCCCCCN1C(=O)N(CCCCCNC(=O)c2ccccc2F)C(Cc2ccccc2)C(O)C(O)C1Cc1ccccc1)c1ccc(F)cc1 (stereo not drawn) [15FC]
IC90 (HIV-1 (RF) in MT-2 cells; HIV RNA assay, HIV-1 infected MT-2 cells, Table 2d): ++/+ (The ++/+ is used in the cases where an IC90 was determined to be >50 μg/mL) | Ki ([1]; HIV protease inhibition, HPLC method, Table 2d, read-out: HPLC K1): 10 to 1000 nM

O=C1N(CC2CC2)C(Cc2ccccc2)C(O)C(O)C(Cc2ccccc2)N1CC1CC1 (stereo not drawn) [Example 13o]
IC90 (HIV-1 (RF) in MT-2 cells; Table 2d, class symbols): ++ (++=10 to 100 μg/mL) | Ki [1, 2]: > 1000 nM

COP1(=O)N(Cc2ccc(CO)cc2)[C@H](Cc2ccccc2)[C@H](O)[C@@H](O)[C@@H](Cc2ccccc2)N1Cc1ccc(CO)cc1 (stereo partly drawn) [28H]
IC90 (HIV-1 (RF) in MT-2 cells; Table 2r): ++ (++=10 to 100 μg/mL) | Ki ([1]; Table 2r, read-out: Ki HPLC): 10 to 1000 nM

CN(C)P1(=O)N(Cc2ccc(CO)cc2)[C@H](Cc2ccccc2)[C@H](O)[C@@H](O)[C@@H](Cc2ccccc2)N1Cc1ccc(CO)cc1 (stereo partly drawn) [28I]
IC90 (HIV-1 (RF) in MT-2 cells; Table 2r): ++ (++=10 to 100 μg/mL) | Ki ([1]; Table 2r, read-out: Ki HPLC): 10 to 1000 nM

O=Cc1cccc(CN2C(Cc3ccccc3)C(O)C(O)C(Cc3ccccc3)N(Cc3cccc(C=O)c3)S2(=O)=O)c1 (stereo not drawn) [23Q]
IC90 (HIV-1 (RF) in MT-2 cells; Table 2m): +++ (+++=<10 μg/mL) | Ki ([1]; Table 2m, read-out: HPLC Ki): < 10 nM

O=C1NC(Cc2ccccc2)C(O)C(O)C(Cc2ccccc2)N1CC1CC1CO (stereo not drawn) [Example 12N]
IC90 (HIV-1 (RF) in MT-2 cells; [3]): > 100 µg/mL | Ki [1, 4]: 10 to 1000 nM

O=C1N(CCCCCO)C(Cc2ccccc2)C(O)C(O)C(Cc2ccccc2)N1CCCCCO (stereo not drawn) [Example 13H]
IC90 (HIV-1 (RF) in MT-2 cells; [3]): < 10 µg/mL | Ki [1, 4]: < 10 nM

NCCCCCN1C(=O)N(CCCCCN)C(Cc2ccccc2)C(O)C(O)C1Cc1ccccc1 (stereo not drawn) [15EP]
IC90 (HIV-1 (RF) in MT-2 cells; [5]): > 50 µg/mL | Ki [1, 6]: > 1000 nM

CCCCC(O)CN1C(=O)NC(Cc2ccccc2)C(O)C(O)C1Cc1ccccc1 (stereo not drawn) [Example 15VM]
IC90 (HIV-1 (RF) in MT-2 cells; [3]): > 50 µg/mL | Ki [1, 4]: > 1000 nM

O=C1N(Cc2ccccc2)[C@H](Cc2ccccc2)C[C@@H](O)[C@@H](Cc2ccccc2)N1Cc1ccccc1 [Example 7AN]
Mass Spec M + H (class symbols printed in this column) (HIV-1 (RF) in MT-2 cells; Table 1d, lower part): +++ (+++=<10 μg/mL) | Ki ([1]; read-out: HPLC Ki, Table 1d, lower part): < 10 nM

O=P1(Oc2ccccc2)N(Cc2ccc(CO)cc2)[C@H](Cc2ccccc2)[C@H](O)[C@@H](O)[C@@H](Cc2ccccc2)N1Cc1ccc(CO)cc1 (stereo partly drawn) [28E]
IC90 (HIV-1 (RF) in MT-2 cells; Table 2r): +++ (+++=<10 μg/mL) | Ki ([1]; Table 2r, read-out: Ki HPLC): 10 to 1000 nM

O=C1N(Cc2cccc(C(O)CO)c2)C(Cc2ccccc2)C(O)C(O)C(Cc2ccccc2)N1Cc1cccc(C(O)CO)c1 (stereo not drawn) [11K]
IC90 (HIV-1 (RF) in MT-2 cells; [3]): < 10 µg/mL | Ki [1, 4]: < 10 nM

CC(C)(C)C(=O)c1cccc(CN2C(=O)N(Cc3cccc(C(=O)C(C)(C)C)c3)C(Cc3ccccc3)C(O)C(O)C2Cc2ccccc2)c1 (stereo not drawn) [Example 15XH]
IC90 (HIV-1 (RF) in MT-2 cells; [5]): < 10 µg/mL | Ki [1, 6]: < 10 nM

CC(=O)c1cccc(CN2C(Cc3ccccc3)C(O)C(O)C(Cc3ccccc3)N(Cc3cccc(C(C)=O)c3)S2(=O)=O)c1 (stereo not drawn) [23T]
IC90 (HIV-1 (RF) in MT-2 cells; Table 2m): +++ (+++=<10 μg/mL) | Ki ([1]; Table 2m, read-out: HPLC Ki): < 10 nM

Cl.NCC(=O)Nc1cccc(CN2C(=O)N(Cc3ccc(CO)cc3)C(Cc3ccccc3)C(O)C(O)C2Cc2ccccc2)c1 (stereo not drawn) [15XT]
IC90 (HIV-1 (RF) in MT-2 cells; Table 2d, HIV RNA assay): +++ (+++=<10 μg/mL) | Ki [1, 7]: < 10 nM

Cc1cccc(CN2C(=O)N(Cc3cccc(O)c3)C(Cc3ccccc3)C(O)C(O)C2Cc2ccccc2)c1 (stereo not drawn) [10J]
IC90 (HIV-1 (RF) in MT-2 cells; Table 2d, class symbols): +++ (+++=<10 μg/mL) | Ki [1, 2]: < 10 nM

CN(C)CCNC(=O)c1cccc(CN2C(=O)N(CC3CC3)C(Cc3ccccc3)C(O)C(O)C2Cc2ccccc2)c1 (stereo not drawn) [15YA]
IC90 (HIV-1 (RF) in MT-2 cells; Table 2d, HIV RNA assay): +++ (+++=<10 μg/mL) | Ki [1, 7]: < 10 nM

O=C1N(Cc2cccc(CCO)c2)C(Cc2ccccc2)C(O)C(O)C(Cc2ccccc2)N1Cc1cccc(CCO)c1 (stereo not drawn) [15DX]
IC90 (HIV-1 (RF) in MT-2 cells; Table 2d, HIV RNA assay): +++ (+++=<10 μg/mL) | Ki [1, 7]: < 10 nM

Source: patent USRE37781E1, “Substituted cyclic carbonyls and derivatives thereof useful as retroviral protease inhibitors” (DuPont Pharmaceuticals Company, priority 1991, dated 2002)
